Test results from patent US11053204B2, “Pyrimidinyloxy benzene derivatives as herbicides” (FMC Corporation, priority 2015, dated 2021).

Legend:
Assay type in all cases: in vivo
[1] = tested on: barnyardgrass (Echinochloa crus-galli); experiment: Test A preemergence, visual injury rating
In short: (§1)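 Visual injury scored 0–100 (100 = complete control) against untreated controls about 10 days after treatment in a greenhouse. Test chemicals, formulated with surfactant in non-phytotoxic solvent, were sprayed on soil preemergence or on 2-10 cm, one- to two-leaf plants postemergence.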

[2] = tested on: kochia (Kochia scoparia); experiment: Test A preemergence, visual injury rating
In short: as §1

[3] = tested on: soybean (Glycine max); experiment: Test C postemergence, plant response rating; settings: for Soybean plant response rating: scale 0 to 100 (0 no effect, 100 complete control)
In short: (§2)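 Pre-emergence: seeds sown in loam soil–sand blend or silt loam and sprayed with test chemicals in a non-phytotoxic solvent mixture with surfactant. Post-emergence: plants 2 to 18 cm (1- to 4-leaf stage) in peat-based potting medium, same formulation. Greenhouse 13 to 15 d; visual rating 0 (no effect) to 100 (complete control) versus controls.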

[4] = tested on: barnyardgrass (Echinochloa crus-galli); experiment: Test C postemergence, plant response rating; settings: for Plant response rating, Barnyardgrass: scale 0 to 100; for Barnyardgrass plant response rating: scale 0 to 100 (0 no effect, 100 complete control)
In short: as §2

[5] = tested on: lambsquarters (Chenopodium album); experiment: Test C postemergence, plant response rating; settings: for Lambsquarters plant response rating: scale 0 to 100 (0 no effect, 100 complete control)
In short: as §2

[6] = tested on: oat, wild (wild oat Avena fatua); experiment: Test C postemergence, plant response rating; settings: for Oat, Wild plant response rating: scale 0 to 100 (0 no effect, 100 complete control)
In short: as §2

[7] = tested on: wheat (winter wheat, Triticum aestivum); experiment: Test C postemergence, plant response rating; settings: for Wheat plant response rating: scale 0 to 100 (0 no effect, 100 complete control)
In short: as §2

[8] = tested on: nutsedge, yellow (yellow nutsedge, Cyperus esculentus); experiment: Test C postemergence, plant response rating; settings: for Nutsedge, Yellow plant response rating: scale 0 to 100 (0 no effect, 100 complete control)
In short: as §2

[9] = tested on: blackgrass (Alopecurus myosuroides); experiment: Test C postemergence, plant response rating; settings: for Plant response rating, Blackgrass: scale 0 to 100; for Blackgrass plant response rating: scale 0 to 100 (0 no effect, 100 complete control)
In short: as §2

[10] = tested on: kochia (Kochia scoparia); experiment: Test C postemergence, plant response rating; settings: for Kochia plant response rating: scale 0 to 100 (0 no effect, 100 complete control)
In short: as §2

[11] = tested on: chickweed (common chickweed, Stellaria media); experiment: Test C postemergence, plant response rating; settings: for Chickweed plant response rating: scale 0 to 100 (0 no effect, 100 complete control)
In short: as §2

[12] = tested on: ryegrass, Italian (Italian ryegrass, Lolium multiflorum); experiment: Test C postemergence, plant response rating; settings: for Ryegrass, Italian plant response rating: scale 0 to 100 (0 no effect, 100 complete control)
In short: as §2

[13] = tested on: crabgrass, large (large crabgrass, Digitaria sanguinalis); experiment: Test C postemergence, plant response rating; settings: for Crabgrass, Large plant response rating: scale 0 to 100 (0 no effect, 100 complete control)
In short: as §2

[14] = tested on: corn (Zea mays); experiment: Test C postemergence, plant response rating; settings: for Corn plant response rating: scale 0 to 100 (0 no effect, 100 complete control)
In short: as §2

[15] = tested on: foxtail, giant (giant foxtail, Setaria faberii); experiment: Test C postemergence, plant response rating; settings: for Foxtail, Giant plant response rating: scale 0 to 100 (0 no effect, 100 complete control)
In short: as §2

[16] = tested on: morningglory (Ipomoea coccinea); experiment: Test C postemergence, plant response rating; settings: for Morningglory plant response rating: scale 0 to 100 (0 no effect, 100 complete control)
In short: as §2

[17] = tested on: oilseed rape (Brassica napus); experiment: Test C postemergence, plant response rating; settings: for Oilseed Rape plant response rating: scale 0 to 100 (0 no effect, 100 complete control)
In short: as §2

[18] = 31 g ai/ha, 0 to 100 scale, 0 no effect, 100 complete control
[19] = 125 g ai/ha, 0 to 100 scale (0 no effect, 100 complete control)

`O=C(CCCC(F)(F)F)c1c(Br)cccc1Oc1ncc(Cl)cn1` [Compound 77] was tested, and the “Plant response rating, Barnyardgrass” value [1, 18] was 20, the “Barnyardgrass plant response rating” value [1, 19] was 100 and the “Plant response rating, Kochia” value [2, 18] was 80. The “Kochia plant response rating” value [2, 19] was 100, the “Plant response rating, Soybean” value ([3]; 16 g ai/ha, scale of 0 to 100) was 25 and the “Plant response rating, Soybean” value ([3]; 31 g ai/ha, scale 0 to 100) was 50. For the same compound, the “Soybean plant response rating” value ([3]; 62 g ai/ha) was 70, the “Soybean plant response rating” value ([3]; 125 g ai/ha) was 65 and the “Plant response rating, Barnyardgrass” value ([4]; 16 g ai/ha) was 15. For the same compound, the “Plant response rating, Barnyardgrass” value ([4]; 31 g ai/ha) was 25, the “Barnyardgrass plant response rating” value ([4]; 62 g ai/ha) was 25 and the “Barnyardgrass plant response rating” value ([4]; 125 g ai/ha) was 30. The “Plant response rating, Lambsquarters” value ([5]; 16 g ai/ha, scale of 0 to 100) was 55, the “Plant response rating, Lambsquarters” value ([5]; 31 g ai/ha, scale 0 to 100) was 75 and the “Lambsquarters plant response rating” value ([5]; 62 g ai/ha) was 70. The “Lambsquarters plant response rating” value ([5]; 125 g ai/ha) was 90, the “Plant response rating, Oat, Wild” value ([6]; 16 g ai/ha, scale of 0 to 100) was 0 and the “Plant response rating, Oat, Wild” value ([6]; 31 g ai/ha, scale 0 to 100) was 5. For the same compound, the “Oat, Wild plant response rating” value ([6]; 62 g ai/ha) was 10, the “Oat, Wild plant response rating” value ([6]; 125 g ai/ha) was 15 and the “Plant response rating, Wheat” value ([7]; 16 g ai/ha, scale of 0 to 100) was 0. The “Plant response rating, Wheat” value ([7]; 31 g ai/ha, scale 0 to 100) was 0, the “Wheat plant response rating” value ([7]; 62 g ai/ha) was 10 and the “Wheat plant response rating” value ([7]; 125 g ai/ha) was 30. For the same compound, the “Plant response rating, Nutsedge, Yellow” value ([8]; 16 g ai/ha, scale of 0 to 100) was 5, the “Plant response rating, Nutsedge, Yellow” value ([8]; 31 g ai/ha, scale 0 to 100) was 10 and the “Nutsedge, Yellow plant response rating” value ([8]; 62 g ai/ha) was 15. The “Nutsedge, Yellow plant response rating” value ([8]; 125 g ai/ha) was 15, the “Plant response rating, Blackgrass” value ([9]; 16 g ai/ha) was 5 and the “Plant response rating, Blackgrass” value ([9]; 31 g ai/ha) was 20. The “Blackgrass plant response rating” value ([9]; 62 g ai/ha) was 20, the “Blackgrass plant response rating” value ([9]; 125 g ai/ha) was 25 and the “Plant response rating, Kochia” value ([10]; 16 g ai/ha, scale of 0 to 100) was 95. For the same compound, the “Plant response rating, Kochia” value ([10]; 31 g ai/ha, scale 0 to 100) was 100, the “Kochia plant response rating” value ([10]; 62 g ai/ha) was 100 and the “Kochia plant response rating” value ([10]; 125 g ai/ha) was 100. For the same compound, the “Plant response rating, Chickweed” value ([11]; 16 g ai/ha, scale of 0 to 100) was 80, the “Plant response rating, Chickweed” value ([11]; 31 g ai/ha, scale 0 to 100) was 80 and the “Chickweed plant response rating” value ([11]; 62 g ai/ha) was 100. The “Chickweed plant response rating” value ([11]; 125 g ai/ha) was 100, the “Plant response rating, Ryegrass, Italian” value ([12]; 16 g ai/ha, scale of 0 to 100) was 0 and the “Plant response rating, Ryegrass, Italian” value ([12]; 31 g ai/ha, scale 0 to 100) was 5. For the same compound, the “Ryegrass, Italian plant response rating” value ([12]; 62 g ai/ha) was 10, the “Ryegrass, Italian plant response rating” value ([12]; 125 g ai/ha) was 10 and the “Plant response rating, Crabgrass, Large” value ([13]; 16 g ai/ha, scale of 0 to 100) was 10. For the same compound, the “Plant response rating, Crabgrass, Large” value ([13]; 31 g ai/ha, scale 0 to 100) was 25, the “Crabgrass, Large plant response rating” value ([13]; 62 g ai/ha) was 30 and the “Crabgrass, Large plant response rating” value ([13]; 125 g ai/ha) was 30. The “Plant response rating, Corn” value ([14]; 16 g ai/ha, scale of 0 to 100) was 15, the “Plant response rating, Corn” value ([14]; 31 g ai/ha, scale 0 to 100) was 15 and the “Corn plant response rating” value ([14]; 62 g ai/ha) was 20. For the same compound, the “Corn plant response rating” value ([14]; 125 g ai/ha) was 25, the “Plant response rating, Foxtail, Giant” value ([15]; 16 g ai/ha, scale of 0 to 100) was 10 and the “Plant response rating, Foxtail, Giant” value ([15]; 31 g ai/ha, scale 0 to 100) was 20. For the same compound, the “Foxtail, Giant plant response rating” value ([15]; 62 g ai/ha) was 25, the “Foxtail, Giant plant response rating” value ([15]; 125 g ai/ha) was 70 and the “Plant response rating, Morningglory” value ([16]; 16 g ai/ha, scale of 0 to 100) was 50. For the same compound, the “Plant response rating, Morningglory” value ([16]; 31 g ai/ha, scale 0 to 100) was 85, the “Morningglory plant response rating” value ([16]; 62 g ai/ha) was 90 and the “Morningglory plant response rating” value ([16]; 125 g ai/ha) was 80. For the same compound, the “Plant response rating, Oilseed Rape” value ([17]; 16 g ai/ha, scale of 0 to 100) was 10, the “Plant response rating, Oilseed Rape” value ([17]; 31 g ai/ha, scale 0 to 100) was 70 and the “Oilseed Rape plant response rating” value ([17]; 62 g ai/ha) was 70. The “Oilseed Rape plant response rating” value ([17]; 125 g ai/ha) was 85.
